Measured values taken from patent US20230130766A1 (SALK INSTITUTE FOR BIOLOGICAL STUDIES, priority 2020, published 2023).

Columns and labels:
A549 cells = assay: A549 xenograft large tumors, ULK inhibitor alone versus carboplatin; assay type: in vivo, nude mice; conditions: A549 large tumors; each Compound 14 cohort: 20 mg/kg twice daily, 30 mg/kg twice daily, 40 mg/kg once daily; 32 days
Experimental: A549 cells (5M cells) were injected bilaterally into the flanks of forty-six nude mice to create tumor xenografts in order to assess the efficacy of Compound 14 in treating larger non-small cell lung cancer tumors compared to carboplatin, the current standard of care therapy for non-small cell lung cancer. After 40 days of letting tumor cells proliferate (at which point tumors were over 200 mm^3 in volume), administration of carboplatin or Compound 14 was initiated. One cohort of twelve mice received 20 mg/kg twice daily doses of Compound 14, one cohort of ten mice received 30 mg/kg twice daily doses of Compound 14, one cohort of seven mice received 25 mg/kg doses of carboplatin every three days, one cohort of seven mice received 40 mg/kg once daily doses of Compound 14, and the remaining ten mice were treated with vehicle. Treatment and monitoring was continued until day 72 post inoculation of tumor cells (32 days of treatment).

[1] = test system: ULK1, phosphorylated ATG13; assay: Western blot analysis of MIA PaCa-2 xenograft tumors; assay type: in vivo, nude mice; conditions: MIA PaCa-2 xenograft tumors at end of experiment, 20 mg/kg twice daily
Experimental: (§1) MIA PaCa-2 cells were injected bilaterally into the flanks of nude mice to create tumor xenografts in order to assess the efficacy of Compound 14 in treating pancreatic cancer tumors compared to gemcitabine, a current standard of care therapy for pancreatic cancer. After 3 days of letting tumor cells proliferate (at which point tumors were ˜100 mm^3 in volume), administration of gemcitabine or Compound 14 was initiated. One cohort received 20 mg/kg twice daily doses of Compound 14, one cohort received gemcitabine, and the remaining cohort was treated with vehicle. Treatment and monitoring were continued until day 42 post inoculation of tumor cells (30 days of treatment).

ULK1 = biological target: T1, ULK1 (Homo sapiens, UniProt O75385); assay: ULK1 inhibition assay; assay type: biochemical; conditions: * = tested as a mixture of regioisomers
T1 sequence (O75385 1-1050): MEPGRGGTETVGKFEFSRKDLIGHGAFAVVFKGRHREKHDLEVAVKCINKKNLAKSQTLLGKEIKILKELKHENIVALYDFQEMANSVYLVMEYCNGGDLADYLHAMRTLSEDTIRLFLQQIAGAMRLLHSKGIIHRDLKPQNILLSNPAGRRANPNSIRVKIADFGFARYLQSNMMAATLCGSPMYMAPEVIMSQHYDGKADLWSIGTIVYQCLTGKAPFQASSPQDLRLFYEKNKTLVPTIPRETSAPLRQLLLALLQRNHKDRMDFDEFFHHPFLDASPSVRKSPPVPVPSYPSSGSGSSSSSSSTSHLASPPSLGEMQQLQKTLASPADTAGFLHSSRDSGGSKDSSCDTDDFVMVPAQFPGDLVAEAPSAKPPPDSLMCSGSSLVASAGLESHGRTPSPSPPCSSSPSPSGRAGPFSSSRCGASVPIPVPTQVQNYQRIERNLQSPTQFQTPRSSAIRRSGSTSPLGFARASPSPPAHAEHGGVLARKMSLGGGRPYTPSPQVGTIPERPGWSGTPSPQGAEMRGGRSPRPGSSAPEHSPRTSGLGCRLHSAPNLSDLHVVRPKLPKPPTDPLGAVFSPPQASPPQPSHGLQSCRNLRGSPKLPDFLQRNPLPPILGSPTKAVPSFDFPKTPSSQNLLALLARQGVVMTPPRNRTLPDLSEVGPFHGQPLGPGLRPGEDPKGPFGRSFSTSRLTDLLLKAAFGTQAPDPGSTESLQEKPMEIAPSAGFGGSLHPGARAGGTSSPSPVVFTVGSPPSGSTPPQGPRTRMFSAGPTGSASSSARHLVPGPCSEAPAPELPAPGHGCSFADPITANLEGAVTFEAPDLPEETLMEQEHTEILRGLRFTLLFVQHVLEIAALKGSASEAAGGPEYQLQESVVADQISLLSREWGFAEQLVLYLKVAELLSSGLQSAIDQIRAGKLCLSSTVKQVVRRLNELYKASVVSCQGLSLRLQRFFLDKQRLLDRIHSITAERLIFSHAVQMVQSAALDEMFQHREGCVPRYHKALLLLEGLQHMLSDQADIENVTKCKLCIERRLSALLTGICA

MIA PaCa-2 cells [2] = assay: MIA PaCa-2 xenografts, ULK inhibitor alone versus gemcitabine; assay type: in vivo, nude mice; conditions: day 42, Compound 14 20 mg/kg twice daily, gemcitabine dose not given
Experimental: as §1

MIA PaCa-2 cells [3] = assay: MIA PaCa-2 xenografts, ULK inhibitor alone and in combination with trametinib; assay type: in vivo, nude mice; conditions: day 25
Experimental: MIA PaCa-2 cells were injected bilaterally into the flanks nude mice to create tumor xenografts in order to assess the efficacy of Compound 14 in treating pancreatic cancer tumors alone and in combination with trametinib, an MEK inhibitor and current standard of care therapy for the treatment of pancreatic cancer. After letting tumor cells proliferate to the point where tumors had reach ˜300 mm^3 in volume, one cohort of mice was administered 20 mg/kg daily doses of Compound 14, one cohort of mice was administered 30 mg/kg daily doses of Compound 14, one cohort of mice was administered 1 mg/kg daily doses of trametinib, one cohort of mice was administered 1 mg/kg daily doses of trametinib in combination with 20 mg/kg daily doses of Compound 14, one cohort of mice was administered 1 mg/kg daily doses of trametinib in combination with 30 mg/kg daily doses of Compound 14, and the remaining cohort of mice was administered vehicle alone. Treatment and monitoring were continued for 25 days.

[4] = test system: phosphorylated ATG13 (P-ATG); assay: Western blot analysis of A549 xenograft tumors; assay type: in vivo, nude mice; conditions: A549 xenograft tumors at end of study
Experimental: A549 cells (5M cells) were injected bilaterally into the flanks of thirty-six nude mice to create tumor xenografts in order to assess the efficacy of Compound 14 in treating non-small cell lung cancer tumors both alone and in combination with carboplatin, the current standard of care therapy for non-small cell lung cancer. After 11 days of letting tumor cells proliferate (at which point tumors were ˜50 mm^3 in volume), administration of carboplatin, Compound 14, or combinations began. One cohort of six mice received 20 mg/kg twice daily doses of Compound 14 alone, one cohort of six mice received 30 mg/kg twice daily doses of Compound 14 alone, one cohort of six mice received 25 mg/kg doses of carboplatin every three days, one cohort of six mice received 20 mg/kg twice daily doses of Compound 14 in conjunction with 25 mg/kg doses of carboplatin every three days, one cohort of six mice received 30 mg/kg twice daily doses of Compound 14 in conjunction with 25 mg/kg doses of carboplatin every three days, and the remaining six mice were treated with vehicle. Treatment and monitoring was continued until day 53 post inoculation of tumor cells (42 days of treatment).
At the end of the study, Western blot analysis of the tumors from vehicle and Compound 14 monotherapy cohorts was analyzed.

**Q.** `CNC(=O)c1ccccc1Nc1nc(Nc2cc(OC)c(OC)c(OC)c2)ncc1Br` [Compound 14] was tested. Which “tumor growth compared with the start of treatment” value (A549 cells) did it give?
**A.** little to no growth, or even a decrease in tumor volume

**Q.** And the “ULK1 levels in tumor (Western blot)” value [1]?
**A.** reduced ULK1 levels compared to vehicle treated

**Q.** What about the “levels of phosphorylated ATG13 in tumor (Western blot)” value [1] of the same compound?
**A.** reduced levels of phosphorylated ATG13

**Q.** And the “total levels of ATG13 in tumor (Western blot)” value ([1]; versus vehicle)?
**A.** comparable

**Q.** What about the IC50 (ULK1) of the same compound?
**A.** < 200 nM

**Q.** And the final tumor volume (MIA PaCa-2 cells [2])?
**A.** ~800 mm^3

**Q.** And the “final tumor size (average)” value (MIA PaCa-2 cells [3]; 20 mg/kg daily alone)?
**A.** ~1000 mm^3

**Q.** And the “average tumor mass at the end of the study” value (MIA PaCa-2 cells [3]; both combinations: trametinib 1 mg/kg daily with Compound 14 20 or 30 mg/kg daily)?
**A.** substantially less tumor mass compared to control and each mono-therapy

**Q.** What about the “phosphorylated ATG13 in tumors (Western blot)” value ([4]; 20 mg/kg twice daily monotherapy) of the same compound?
**A.** some residual phosphorylated ATG13

**Q.** And the “phosphorylated ATG13 in tumors (Western blot)” value ([4]; 30 mg/kg twice daily monotherapy)?
**A.** almost total elimination of phosphorylated ATG13
